Measurements from patent US20260070895A1, “CRYSTALLINE FORMS” (QUIMATRYX, S.L., priority 2022, published 2026).
In brackets after ≈: the same amount, converted by molar mass. Read-outs that look alike come from different tables or passages of the source.

Tests used:
Type in all cases: physicochemical
[1] = Photostability at solid state (chemical purity by HPLC after illumination); conditions: solid-state, unsealed clear glass bottles, forced illumination
Protocol: (§1) The method for determining purity by HPLC—used throughout these examples—used the following parameters:
(§2) The photostability of novel crystalline forms of QTX125 was assessed at solid state and in solution. Where ‘forced illumination’ conditions were used, samples were illuminated at 12 Klux/hour and 2.8 UV W/m^2/hour. Samples were stored at a temperature of 30° C. Following incubation, the chemical purity of QTX125 was measured by HPLC.
(§3) The following index is provided to aid navigation of the data presented in Tables 3.1.1 to 3.3.6: • 3.1.x—Assessment of the photostability of QTX125 Form 2. • 3.2.x—Assessment of the photostability of amorphous QTX125. • 3.3.x—Assessment of the photostability of the QTX125 1:2 L-Lysine adduct. • 3.x.1—Samples (at solid state) stored in unsealed clear glass bottles, subject to forced illumination. • 3.x.2—Samples (at solid state) sealed under nitrogen in clear glass bottles, subject to forced illumination. • 3.x.3—Samples (at solid state) sealed under nitrogen in amber glass bottles, illuminated under ambient laboratory conditions • 3.x.4—Samples (at solid state) sealed under nitrogen in amber glass bottles, subject to forced illumination. • 3.x.5—Samples (in solution) sealed under nitrogen in amber glass bottles, illuminated under ambient laboratory conditions. • 3.x.6—Samples (in solution) sealed under nitrogen in amber glass bottles, subject to forced illumination.

[2] = Photostability in solution (THF and water), HPLC; conditions: in solution (THF and water), sealed under nitrogen in amber glass bottles; for degradation (in words): up to 171 hours
Protocol: as §1, §2, §3

[3] = Aqueous solubility at 37° C. (HPLC of filtered suspension); conditions: 37° C.
Protocol: The solubility of novel crystalline forms of QTX125 was assessed in the following aqueous solutions: (i) phosphate buffer, pH 3.5, 0.9% w/v sodium chloride; (ii) phosphate buffer, pH 6.5, 0.9% w/v sodium chloride; (iii) acetate buffer, pH 4.5, 0.9% w/v sodium chloride; (iv) citro-phosphate buffer, pH 4.5, 0.9% w/v sodium chloride; (v) sodium chloride, 0.9% w/v and (vi) deionised water. All assays were completed at 37° C.
In brief, 30 mg QTX125 was dispensed into vessels followed by 5 mL of the appropriate aqueous buffer. Mixtures were suspended by agitation and heated to 37° C. At various fixed intervals, an 0.4 mL aliquot of the suspension was removed, filtered and diluted for examination by HPLC. A single HPLC reference sample was used.

[4] = ambient laboratory conditions, 0 hours
[5] = ambient laboratory conditions, 3 hours
[6] = ambient laboratory conditions, 26 hours
[7] = ambient laboratory conditions, 171 hours
[8] = ambient laboratory conditions, 171 hours, listed as Form 2
[9] = forced illumination, 171 hours, listed as Form 2
[10] = 0.9% w/v sodium chloride solution, saline or isotonic, thermodynamic from solid, buffer (v) sodium chloride, 0.9% w/v, read-out: concentration of QTX125 (solubility)
[11] = acetate buffer with 0.9% w/v sodium chloride, aqueous buffer, thermodynamic from solid, buffer (iii) acetate buffer, pH 4.5, 0.9% w/v sodium chloride, read-out: concentration of QTX125 (solubility)
[12] = citro-phosphate buffer with 0.9% w/v sodium chloride, aqueous buffer, thermodynamic from solid, buffer (iv) citro-phosphate buffer, pH 4.5, 0.9% w/v sodium chloride, read-out: concentration of QTX125 (solubility)
[13] = phosphate buffer with 0.9% w/v sodium chloride, aqueous buffer, thermodynamic from solid, buffer (i) phosphate buffer, pH 3.5, 0.9% w/v sodium chloride, read-out: concentration of QTX125 (solubility)
[14] = phosphate buffer with 0.9% w/v sodium chloride, aqueous buffer, thermodynamic from solid, buffer (ii) phosphate buffer, pH 6.5, 0.9% w/v sodium chloride, read-out: concentration of QTX125 (solubility)
[15] = thermodynamic from solid, buffer (vi) deionised water, read-out: concentration of QTX125 (solubility)

SMILES: O=C(NO)c1ccc(CNC(=O)c2[nH]c(-c3ccc(O)cc3)cc2-c2ccoc2)cc1 [QTX125 Form 2, 3-(3-Furyl)-N-{4-[(hydroxyamino)carbonyl]benzyl}-5-(4-hydroxyphenyl)-1H-pyrrole-2-carboxamide]
- HPLC peak area, RRT 1.04 ([1]; 171 hours): 9.15%
- HPLC peak area, RRT 1.12 ([1]; 171 hours): 0.52%
- degradation (in words) ([1]; up to 171 hours): degrade to two principal components
- HPLC peak area, QTX125 RRT 1.00 [2, 4]: 98.21%
- HPLC peak area, RRT 1.04 [2, 4]: 0.98%
- HPLC peak area, QTX125 RRT 1.00 [2, 5]: 97.50%
- HPLC peak area, RRT 1.04 [2, 5]: 1.06%
- HPLC peak area, QTX125 RRT 1.00 [2, 6]: 97.65%
- HPLC peak area, RRT 1.04 [2, 6]: 0.93%
- HPLC peak area, QTX125 RRT 1.00 [2, 7]: 91.10%
- HPLC peak area, RRT 1.04 [2, 7]: 4.81%
- HPLC peak area, RRT 1.12 [2, 7]: 0.83%
- HPLC peak area, QTX125 RRT 1.00 [2, 8]: 91.10%
- HPLC peak area, RRT 1.04 [2, 8]: 4.81%
- HPLC peak area, RRT 1.12 [2, 8]: 0.83%
- degradation (in words) ([2]; ambient laboratory conditions): degrade
- HPLC peak area, QTX125 RRT 1.00 ([2]; forced illumination, 0 hours): 98.21%
- HPLC peak area, RRT 1.04 ([2]; forced illumination, 0 hours): 0.98%
- HPLC peak area, QTX125 RRT 1.00 ([2]; forced illumination, 3 hours): 97.30%
- HPLC peak area, RRT 1.04 ([2]; forced illumination, 3 hours): 1.07%
- HPLC peak area, QTX125 RRT 1.00 ([2]; forced illumination, 26 hours): 96.27%
- HPLC peak area, RRT 1.04 ([2]; forced illumination, 26 hours): 1.09%
- HPLC peak area, QTX125 RRT 1.00 ([2]; forced illumination, 171 hours): 81.65%
- HPLC peak area, RRT 1.04 ([2]; forced illumination, 171 hours): 3.60%
- HPLC peak area, RRT 1.12 ([2]; forced illumination, 171 hours): 0.86%
- HPLC peak area, QTX125 RRT 1.00 [2, 9]: 81.65%
- HPLC peak area, RRT 1.04 [2, 9]: 3.60%
- HPLC peak area, RRT 1.12 [2, 9]: 0.86%
- degradation (in words) ([2]; forced illumination): degrade
- solubility at 1 h [3, 10]: 0.68 µg/mL (≈ 1.63 µM)
- solubility at 4 h [3, 10]: 0.26 µg/mL (≈ 0.623 µM)
- solubility at 7 h ([3]; 0.9% w/v sodium chloride solution, saline or isotonic, thermodynamic from solid, buffer (v) sodium chloride, 0.9% w/v, 7 hours, read-out: concentration of QTX125 (solubility)): 0.22 µg/mL (≈ 0.527 µM)
- solubility at 24 h [3, 10]: 0.81 µg/mL (≈ 1.94 µM)
- solubility at 1 h [3, 11]: 0.25 µg/mL (≈ 0.599 µM)
- solubility at 4 h [3, 11]: 0.29 µg/mL (≈ 0.695 µM)
- solubility at 7 h ([3]; acetate buffer with 0.9% w/v sodium chloride, aqueous buffer, thermodynamic from solid, buffer (iii) acetate buffer, pH 4.5, 0.9% w/v sodium chloride, 7 hours, read-out: concentration of QTX125 (solubility)): 0.19 µg/mL (≈ 0.455 µM)
- solubility at 24 h [3, 11]: 0.5 µg/mL (≈ 1.2 µM)
- solubility ([3]; aqueous buffers (i) to (v), aqueous buffer, thermodynamic from solid, buffers (i) to (v), 1 to 24 hours, read-out: concentration values range (solubility)): 0.15 to 1.76 µg/mL (≈ 0.359 to 4.22 µM)
- concentration of QTX125 (solubility) ([3]; buffer (vi) deionised water, 7 hours): 27.82 µg/mL
- solubility (in words) ([3]; buffers (i) to (v)): very low
- solubility at 1 h [3, 12]: 0.32 µg/mL (≈ 0.767 µM)
- solubility at 4 h [3, 12]: 0.17 µg/mL (≈ 0.407 µM)
- solubility at 7 h ([3]; citro-phosphate buffer with 0.9% w/v sodium chloride, aqueous buffer, thermodynamic from solid, buffer (iv) citro-phosphate buffer, pH 4.5, 0.9% w/v sodium chloride, 7 hours, read-out: concentration of QTX125 (solubility)): 0.17 µg/mL (≈ 0.407 µM)
- solubility at 24 h [3, 12]: 0.4 µg/mL (≈ 0.958 µM)
- PXRD analysis of the solid recovered at 24 hours ([3]; deionised water (vi)): confirmed the entity as Form 2
- solubility at 1 h [3, 13]: 0.77 µg/mL (≈ 1.84 µM)
- solubility at 4 h [3, 13]: 0.15 µg/mL (≈ 0.359 µM)
- solubility at 7 h ([3]; phosphate buffer with 0.9% w/v sodium chloride, aqueous buffer, thermodynamic from solid, buffer (i) phosphate buffer, pH 3.5, 0.9% w/v sodium chloride, 7 hours, read-out: concentration of QTX125 (solubility)): 0.5 µg/mL (≈ 1.2 µM)
- solubility at 24 h [3, 13]: 1.76 µg/mL (≈ 4.22 µM)
- solubility at 1 h [3, 14]: 0.33 µg/mL (≈ 0.791 µM)
- solubility at 4 h [3, 14]: 0.15 µg/mL (≈ 0.359 µM)
- solubility at 7 h ([3]; phosphate buffer with 0.9% w/v sodium chloride, aqueous buffer, thermodynamic from solid, buffer (ii) phosphate buffer, pH 6.5, 0.9% w/v sodium chloride, 7 hours, read-out: concentration of QTX125 (solubility)): 0.34 µg/mL (≈ 0.815 µM)
- solubility at 24 h [3, 14]: 0.63 µg/mL (≈ 1.51 µM)
- solubility at 1 h [3, 15]: 17.8 µg/mL (≈ 42.6 µM)
- solubility at 4 h [3, 15]: 22.4 µg/mL (≈ 53.6 µM)
- solubility at 24 h [3, 15]: 16.6 µg/mL (≈ 39.7 µM)
- solubility at 7 h ([3]; thermodynamic from solid, deionised water (buffer vi), following 7 hours of incubation, read-out: peak solubility): 27.8 µg/mL (≈ 66.6 µM)
